The subject of series [1] is intracellular glutathione (GSH). Particulars: variety of cell types and tissues; cited from earlier work.
For a further series, the system named is cell monolayer. Particulars: Transwell model; cited from earlier work.
Series [2] addresses T1, Na+-dependent multivitamin transporter (Homo sapiens, UniProt Q9Y289).
T1 sequence (Q9Y289 1-635): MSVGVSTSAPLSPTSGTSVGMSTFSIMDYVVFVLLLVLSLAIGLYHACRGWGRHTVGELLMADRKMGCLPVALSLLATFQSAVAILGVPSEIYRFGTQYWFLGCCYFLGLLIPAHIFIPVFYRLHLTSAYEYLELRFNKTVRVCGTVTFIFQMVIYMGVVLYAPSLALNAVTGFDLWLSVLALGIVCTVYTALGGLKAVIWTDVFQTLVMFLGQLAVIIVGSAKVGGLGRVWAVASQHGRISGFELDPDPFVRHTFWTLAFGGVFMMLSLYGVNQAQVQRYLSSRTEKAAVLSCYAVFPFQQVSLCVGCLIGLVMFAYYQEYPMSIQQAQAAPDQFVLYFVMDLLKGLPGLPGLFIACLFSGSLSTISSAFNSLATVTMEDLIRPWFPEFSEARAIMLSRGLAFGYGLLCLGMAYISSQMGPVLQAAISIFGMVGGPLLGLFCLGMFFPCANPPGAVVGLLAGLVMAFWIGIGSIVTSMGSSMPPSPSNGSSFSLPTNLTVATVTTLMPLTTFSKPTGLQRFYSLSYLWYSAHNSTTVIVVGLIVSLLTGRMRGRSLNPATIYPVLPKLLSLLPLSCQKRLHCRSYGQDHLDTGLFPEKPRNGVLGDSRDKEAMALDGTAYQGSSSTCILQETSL
Particulars: in vitro; cited from earlier work.

In another series the test system is GERD symptoms. Nature of the series: Example 1: subject diagnosed with GERD, self-reported relief on omeprazole alone vs omeprazole plus ALA. It is filed as in vivo, human. Particulars: scale of 1-10; 40 mg of omeprazole per day. Here is the method: A middle aged subject diagnosed with GERD had been on the proton pump inhibitor omeprazole for approximately three years. The subject reported taking 40 mg of omeprazole per day to control symptoms of GERD. On a scale of 1-10, subject rated the effectiveness of omeprazole at 5. […] In accordance with the present disclosure, they began taking orally 20 mg of omeprazole and 400 mg of ALA on a daily basis. […] Subject rated effectives of regime of the present disclosure a 9 on a scale from 1-10. […] Additional study was undertaken to see to what extent the combination of proton pump inhibitor and ALA of the present disclosure would have on GERD and heartburn symptoms. The person was instructed to orally take 20 mg of omeprazole and 600 mg of ALA daily for 3 months. […] Other important facts were gathered from this 3-month study. The treatment regime is fast acting and generally will halt the symptoms of even the worst scenario of acid reflux in no more than 120 minutes. Continued relief is experienced for a minimum of 24 hours with no further oral intake of the combination regime. The participant reported eating regular foods with no more modified diet schemes. Foods such as pizza, spaghetti, chili, ice cream, pastrami, taco […] like, all once avoided, are now capable of being enjoyed at meal times.

A further series deals with heartburn and GERD. Nature of the series: Conclusions on the use of the combination regimes. It is filed as in vivo, human. Particulars: Omeprazole alone.

Data on two molecules can be found in patent US11273145B2, “Compositions and methods for the treatment of acid-related gastrointestinal disorders containing a dithiolane compound and a gastric acid secretion inhibitor” (priority 2014, dated 2022).

On to `O=C(O)CCCCC1CCSS1` (stereo not drawn) [ALA, Alpha-Lipoic Acid], for which the “effect on intracellular glutathione (GSH)” value in series [1] was “markedly increases”. Also, in the series with cell monolayer, the “transport across cell monolayer” value is recorded as “rapidly traverses the cell monolayer in a pH-dependent manner”. In addition, the transporter substrate status entry in series [2] is reported as “substrate”.
Take `COc1ccc2[nH]c([S+]([O-])Cc3ncc(C)c(OC)c3C)nc2c1` (centres unmarked) [omeprazole]: in the series with GERD symptoms, the “effectiveness rating by subject” value is recorded as 5. Besides, the “time to elimination of GERD symptoms, on the average” value with heartburn and GERD worked out at 2 days.
